# Measurements published in US20210137853A1, “METHODS OF TREATING EPILEPTIC PATIENTS WITH FENFLURAMINE” (Zogenix International Limited, priority 2019, published 2021).
# Where “and” joins values, the source holds several entries; their conditions need not be identical. Identical values can stand only once. Like-named read-outs stand apart in the source and are kept apart here.
# Key:
# [1] = system: Maximal Electroshock (MES) model of acute generalized tonic clonic seizures; experiment: MES test of fenfluramine (FFA) alone, dose and time range; type: in vivo, mouse
# Description: Results are depicted in Table 6 below.
# [2] = system: Maximal Electroshock (MES) model of acute generalized tonic clonic seizures; experiment: MES test of fenfluramine in combination with serotonergic inhibitors; settings: for Activity in MES model in presence of FFA (animals protected): Table 7, compound combined with 3 mg/kg FFA; for Impaired (I/F) / Protected (N/F): compound IP at Table 5 dose and time of test, with fenfluramine 3 mg/kg IP 4 hr pre-test; for effect on FFA anti-seizure activity in MES model (in words): summary of Table 7
# Description: Specifically, the present example describes characterization of anticonvulsant effects of fenfluramine when administered in combination with various other compounds using a murine model of seizures: a Maximal Electroshock (IVIES) model. Maximal Electroshock (IVIES) is a model of acute generalized tonic clonic seizures. Induction of seizures is caused by 60 Hz 0.2 second alternating 50 mA current in the mouse. Tonic hindlimb extensions are measured to assess seizures or seizure protection.
# So, for example, a compound with a 1 hour time of peak activity would be administered 3 hours after FEN administration in the study design.
# [3] = target: T1, 5-HT1A (Homo sapiens, UniProt P08908); settings: cited from earlier work; for Ki: values from ChemBL, PDSP or DrugBank.ca and literature
# T1 sequence (P08908 1-422): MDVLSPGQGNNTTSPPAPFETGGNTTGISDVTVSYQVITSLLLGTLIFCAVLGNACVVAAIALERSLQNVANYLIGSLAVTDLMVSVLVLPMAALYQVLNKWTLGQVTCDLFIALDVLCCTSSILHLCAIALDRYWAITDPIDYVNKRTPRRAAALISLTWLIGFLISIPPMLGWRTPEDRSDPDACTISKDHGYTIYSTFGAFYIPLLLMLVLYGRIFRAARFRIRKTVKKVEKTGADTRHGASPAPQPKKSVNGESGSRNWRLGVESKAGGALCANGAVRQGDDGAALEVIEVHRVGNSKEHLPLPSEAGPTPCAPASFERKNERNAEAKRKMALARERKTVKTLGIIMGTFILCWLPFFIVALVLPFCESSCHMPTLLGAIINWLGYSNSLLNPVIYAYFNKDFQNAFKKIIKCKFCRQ
# [4] = target: 5-HT1D (Homo sapiens, UniProt P28221); settings: Table 4, cited from earlier work; for Ki: values from ChemBL, PDSP or DrugBank.ca and literature
# 5-HT1D, sequence (P28221 whole entry, species assumed): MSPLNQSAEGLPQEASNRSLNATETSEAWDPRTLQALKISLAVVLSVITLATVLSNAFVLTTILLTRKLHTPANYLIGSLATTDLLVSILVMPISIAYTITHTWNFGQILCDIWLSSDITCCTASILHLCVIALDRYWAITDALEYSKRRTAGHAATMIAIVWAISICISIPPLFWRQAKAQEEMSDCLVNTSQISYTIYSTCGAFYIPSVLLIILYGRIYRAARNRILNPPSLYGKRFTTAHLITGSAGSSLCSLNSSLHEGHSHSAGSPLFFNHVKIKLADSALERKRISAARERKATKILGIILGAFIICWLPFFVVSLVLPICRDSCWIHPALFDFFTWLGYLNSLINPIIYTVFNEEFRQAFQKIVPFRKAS
# [5] = target: 5-HT1B (Homo sapiens, UniProt P28222); settings: cited from earlier work
# 5-HT1B, sequence (P28222 whole entry, species assumed): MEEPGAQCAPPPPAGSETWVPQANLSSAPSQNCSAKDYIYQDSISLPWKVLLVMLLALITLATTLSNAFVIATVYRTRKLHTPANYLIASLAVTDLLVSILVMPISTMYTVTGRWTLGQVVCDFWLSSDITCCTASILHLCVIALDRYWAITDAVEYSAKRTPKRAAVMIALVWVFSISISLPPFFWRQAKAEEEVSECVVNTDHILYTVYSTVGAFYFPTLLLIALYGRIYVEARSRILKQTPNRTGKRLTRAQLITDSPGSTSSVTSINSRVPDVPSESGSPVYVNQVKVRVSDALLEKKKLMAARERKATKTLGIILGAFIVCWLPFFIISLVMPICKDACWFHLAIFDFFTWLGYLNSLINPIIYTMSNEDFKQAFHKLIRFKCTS
# [6] = target: T2, 5-HT2C (Homo sapiens, UniProt P28335); settings: Table 4; values from ChemBL, PDSP or DrugBank.ca and literature; cited from earlier work
# T2 sequence (P28335 33-458): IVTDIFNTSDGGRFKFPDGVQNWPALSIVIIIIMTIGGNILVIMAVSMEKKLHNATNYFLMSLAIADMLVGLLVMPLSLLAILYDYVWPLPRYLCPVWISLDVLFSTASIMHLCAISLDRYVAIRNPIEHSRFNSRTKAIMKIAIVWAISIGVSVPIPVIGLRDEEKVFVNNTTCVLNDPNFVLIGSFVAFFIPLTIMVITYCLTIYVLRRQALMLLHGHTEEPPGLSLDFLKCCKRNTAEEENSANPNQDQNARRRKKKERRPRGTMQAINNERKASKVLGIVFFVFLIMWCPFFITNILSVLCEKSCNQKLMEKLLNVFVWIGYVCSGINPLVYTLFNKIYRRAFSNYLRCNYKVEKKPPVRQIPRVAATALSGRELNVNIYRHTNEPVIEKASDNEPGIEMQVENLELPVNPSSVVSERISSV
# [7] = system: Dravet syndrome seizures; settings: supplemented with clobazam and valproate; cited from earlier work
# [8] = target: 5-HT2A (Homo sapiens, UniProt P28223); settings: Table 4; values from ChemBL, PDSP or DrugBank.ca and literature; cited from earlier work
# 5-HT2A, sequence (P28223 whole entry): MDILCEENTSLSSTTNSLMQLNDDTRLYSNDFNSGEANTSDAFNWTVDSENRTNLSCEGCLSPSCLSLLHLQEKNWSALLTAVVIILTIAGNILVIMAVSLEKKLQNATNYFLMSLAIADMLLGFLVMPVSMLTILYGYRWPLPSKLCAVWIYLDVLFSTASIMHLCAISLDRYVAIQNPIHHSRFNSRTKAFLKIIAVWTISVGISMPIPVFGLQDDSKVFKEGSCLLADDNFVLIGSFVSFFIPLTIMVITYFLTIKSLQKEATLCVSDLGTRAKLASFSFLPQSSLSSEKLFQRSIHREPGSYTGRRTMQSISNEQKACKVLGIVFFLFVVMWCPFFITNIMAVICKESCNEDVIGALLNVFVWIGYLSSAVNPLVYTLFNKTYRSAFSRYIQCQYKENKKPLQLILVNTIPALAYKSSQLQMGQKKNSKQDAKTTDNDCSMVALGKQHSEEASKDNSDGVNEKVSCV
# [9] = system: MES test; settings: cited from earlier work
# [10] = fenfluramine 3 mg/kg IP plus vehicle (VEH) only
# [11] = 50% inhibition of specific binding, Moser et al. 1990
SMILES,Activity in MES model in presence of FFA (animals protected) [2],Impaired (I/F) [2],Protected (N/F) [2],effect on FFA anti-seizure activity in MES model (in words) [2],Ki [4] [nM],also measured
"CCNC(C)Cc1cccc(C(F)(F)F)c1 (racemic) [Fenfluramine, (RS)—N-ethyl-1-[3-(trifluoromethyl)phenyl]propan-2-amine]",,,,,,"Activity in MES model: FFA protected ([1]; 2.5 mg/kg IP, 4 hr pre-MES, SOW #1 MES Quantification): FFA protected = 3/4; animals protected in the MES assay ([1]; 3 mg/kg FFA): 50-60%; Activity in MES model: FFA protected ([1]; 3 mg/kg IP, 2 hr pre-MES, SOW #1 MES Identification): FFA protected = 3/4; Activity in MES model: FFA protected ([1]; 3 mg/kg, 4 hr pre-MES, SOW #2 (-) control): FFA protected = 4/8; Activity in MES model: FFA protected ([1]; 3 mg/kg, 4 hr pre-MES, SOW #3 (-) control): FFA protected = 5/8; Activity in MES model: FFA protected ([1]; 5 mg/kg IP, 4 hr pre-MES, SOW #1 MES Quantification): FFA protected = 6/8; protection in the MES model ([1]; 10 mg/kg FFA): 100%; Activity in MES model: FFA protected ([1]; 10 mg/kg IP, 2 hr pre-MES, SOW #1 MES Time Course): FFA protected = 3/4; Activity in MES model: FFA protected ([1]; 10 mg/kg IP, 4 hr pre-MES, SOW #1 MES Quantification): FFA protected = 8/8; Activity in MES model: FFA protected ([1]; 10 mg/kg IP, 4 hr pre-MES, SOW #1 MES Time Course): FFA protected = 4/4; Impaired (I/F) [1, 10]: 0/8; Protected (N/F) [1, 10]: 4/8 and 5/8"
OC(CN1CCN(c2cccc(Cl)c2)CC1)C(c1ccccc1)c1ccccc1 (stereo not drawn) [BRL 15572],FFA reduced protection = 1/8,0/8,1/8,appear to block FFA anti-seizure activity,,pKi 5-HT1A ([3]; Table 4): 7.7; pKi 5-HT1D [4]: 7.9
O=C1CC2(CCCC2)CC(=O)N1CCNCC1COc2ccccc2O1 (stereo not drawn) [Binospirone],FFA protected = 3/8,0/8,3/8,,,"pIC50 5-HT1B [5, 11]: 4.5; pIC50 5-HT1A [3, 11]: 8.6"
NC(=O)N1c2ccccc2C=Cc2ccccc21 [Carbamazepine],Protected = 8/8,0/8,8/8,no interference was observed,,
CN(C)CCCN1c2ccccc2Sc2ccc(Cl)cc21 [Chlorpromazine],FFA protected = 5/8,,5/8,do not block FFA anti-seizure activity,452,
CN1CCN(C2=Nc3cc(Cl)ccc3Nc3ccccc32)CC1 [Clozapine],FFA reduced protection = 1/8,,,appear to block FFA anti-seizure activity,,
CN1CCN(C2=Nc3ccccc3Oc3ccc(Cl)cc32)CC1 [Loxapine],,,,,3470,"Ki ([5]; Table 4, values from ChemBL, PDSP or DrugBank.ca and literature): 388 nM; Ki ([3]; Table 4): 2460 nM; Ki [6]: 9.5 to 21 nM"
"Clc1ccc2c(c1)N=C(N1CCNCC1)c1ccccc1N2 [N-desmethyl-clozapine, N-desmethylclozapine]",FFA reduced protection = 1/8,0/8,1/8,appear to block FFA anti-seizure activity,130,Ki ([3]; Table 4): 160 nM; Ki [6]: 4.8 nM
O=c1[nH]c2ccccc2n1C1CCN(CCCC(c2ccc(F)cc2)c2ccc(F)cc2)CC1 [Pimozide],FFA protected = 3/8,,3/8,do not block FFA anti-seizure activity,3100,
CC(C)NCC(O)COc1cccc2[nH]ccc12 (stereo not drawn) [Pindolol],FFA protected = 5/8,,5/8,do not block FFA anti-seizure activity,4900,
"CC(C)(C)C(O)/C=C/c1ccc2c(c1)OCO2 (stereo not drawn) [Stiripentol, stiripentol]",,,,,,reduction of overall seizure rate [7]: 70%
CN1CC2c3ccccc3Oc3ccc(Cl)cc3C2C1 (stereo not drawn) [asenapine],FFA reduced protection = 2/8,0/8,2/8,,10.2,Ki ([3]; Table 4): 15 nM; Ki [8]: 0.77 nM; Ki [6]: 0.27 nM
CN(C)CCCN1c2ccccc2CCc2ccc(Cl)cc21 [clomipramine],FFA protected = 7/8,0/8,7/8,do not block FFA anti-seizure activity,,Ki [6]: 64.6 nM
CN(C)CCC=C1c2ccccc2COc2ccccc21 [doxepin],FFA protected = 7/8,,7/8,do not block FFA anti-seizure activity,,"ED50 in MES test ([9]; 0.25 hr post-administration): 8.2 mg/kg; ED50 in MES test ([9]; IP, at TPE of 5 min): 6.6 mg"
CN1CCN2c3ccccc3Cc3ccccc3C2C1 (stereo not drawn) [mianserin],FFA reduced protection = 2/8,0/8,2/8,,,
OCCN1CCN(CCCN2c3ccccc3Sc3ccc(Cl)cc32)CC1 [perphenazine],FFA reduced protection = 2/8,,2/8,,,
